These results are taken from patent US20250214983A1, “1,3,4-OXADIAZOLE TRIAZOLE COMPOUNDS AS HISTONE DEACETYLASE 6 INHIBITOR, AND PHARMACEUTICAL COMPOSITION COMPRISING THE SAME” (Chong Kun Dang Pharmaceutical Corp., priority 2022, published 2025).

A word on the IC50: it is the concentration that inhibits the measured activity by half.

SMILES strings stand for the structures.

The target in one assay is T1, human recombinant HDAC1 (Homo sapiens, UniProt Q13547).
T1 construct: purchased Enzo Life Science, Inc. BML-SE456
T1 sequence (Q13547 whole entry): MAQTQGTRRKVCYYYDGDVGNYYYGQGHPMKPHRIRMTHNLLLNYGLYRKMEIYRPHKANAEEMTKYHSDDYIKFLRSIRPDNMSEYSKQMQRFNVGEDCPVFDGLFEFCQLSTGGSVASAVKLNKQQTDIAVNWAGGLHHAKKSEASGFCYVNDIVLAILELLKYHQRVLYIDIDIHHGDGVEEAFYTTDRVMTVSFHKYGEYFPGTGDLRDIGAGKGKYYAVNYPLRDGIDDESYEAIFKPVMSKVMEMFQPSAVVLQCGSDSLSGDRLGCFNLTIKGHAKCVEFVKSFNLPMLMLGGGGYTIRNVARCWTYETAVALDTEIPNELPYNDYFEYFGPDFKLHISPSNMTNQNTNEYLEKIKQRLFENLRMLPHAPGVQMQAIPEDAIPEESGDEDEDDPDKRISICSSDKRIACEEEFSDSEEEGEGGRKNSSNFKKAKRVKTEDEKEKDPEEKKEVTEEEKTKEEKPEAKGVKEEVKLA
The assay can be described thus: HDAC1 enzyme activity inhibition (HDAC Fluorimetric Drug Discovery Kit). It counts as biochemical. The note with it: human recombinant HDAC1, Fluor de Lys substrate 10 μM, 30° C. 60 minutes. The protocol: (§1) An experiment was conducted to identify the selectivity of the 1,3,4-oxadiazole triazole compound of the present invention to HDAC6 through an experiment on HDAC1 and HDAC6 enzyme activity inhibition.
(§2) The HDAC enzyme activity was measured with HDAC Fluorimetric Drug Discovery Kit (BML-AK511, 516) of Enzo Life Science, Inc. For the test on the HDAC1 enzyme activity, human recombinant HDAC1 (BML-SE456) was used as an enzyme source and Fluor de Lys®-“SIRT1 (BNL-KI177)” was used as a substrate. A 5-fold dilution of the compound was divided into a 96-well plate, after which 0.3 μg of the enzyme and 10 μM of the substrate were inserted into each well and subjected to reaction at 30° C. for 60 minutes, such that Fluor de Lys® Developer II (BML-KI176) was inserted thereinto and subjected to reaction for 30 minutes and finished. After that, a fluorescence value (Ex 360, Em 460) was measured with a multi-plate reader (Flexstation 3, Molecular Device). An experiment on HDAC6 enzyme was conducted in accordance with the same protocol as in the HDAC1 enzyme activity test method by using human recombinant HDAC6 (382180) of Calbiochem Inc. For final result values, each IC50 value was calculated with GraphPad Prism 4.0 program.

A further assay has as its target T2, human recombinant HDAC6 (Homo sapiens, UniProt Q9UBN7).
T2 construct: purchased Calbiochem Inc. 382180
T2 sequence (Q9UBN7 1-1215): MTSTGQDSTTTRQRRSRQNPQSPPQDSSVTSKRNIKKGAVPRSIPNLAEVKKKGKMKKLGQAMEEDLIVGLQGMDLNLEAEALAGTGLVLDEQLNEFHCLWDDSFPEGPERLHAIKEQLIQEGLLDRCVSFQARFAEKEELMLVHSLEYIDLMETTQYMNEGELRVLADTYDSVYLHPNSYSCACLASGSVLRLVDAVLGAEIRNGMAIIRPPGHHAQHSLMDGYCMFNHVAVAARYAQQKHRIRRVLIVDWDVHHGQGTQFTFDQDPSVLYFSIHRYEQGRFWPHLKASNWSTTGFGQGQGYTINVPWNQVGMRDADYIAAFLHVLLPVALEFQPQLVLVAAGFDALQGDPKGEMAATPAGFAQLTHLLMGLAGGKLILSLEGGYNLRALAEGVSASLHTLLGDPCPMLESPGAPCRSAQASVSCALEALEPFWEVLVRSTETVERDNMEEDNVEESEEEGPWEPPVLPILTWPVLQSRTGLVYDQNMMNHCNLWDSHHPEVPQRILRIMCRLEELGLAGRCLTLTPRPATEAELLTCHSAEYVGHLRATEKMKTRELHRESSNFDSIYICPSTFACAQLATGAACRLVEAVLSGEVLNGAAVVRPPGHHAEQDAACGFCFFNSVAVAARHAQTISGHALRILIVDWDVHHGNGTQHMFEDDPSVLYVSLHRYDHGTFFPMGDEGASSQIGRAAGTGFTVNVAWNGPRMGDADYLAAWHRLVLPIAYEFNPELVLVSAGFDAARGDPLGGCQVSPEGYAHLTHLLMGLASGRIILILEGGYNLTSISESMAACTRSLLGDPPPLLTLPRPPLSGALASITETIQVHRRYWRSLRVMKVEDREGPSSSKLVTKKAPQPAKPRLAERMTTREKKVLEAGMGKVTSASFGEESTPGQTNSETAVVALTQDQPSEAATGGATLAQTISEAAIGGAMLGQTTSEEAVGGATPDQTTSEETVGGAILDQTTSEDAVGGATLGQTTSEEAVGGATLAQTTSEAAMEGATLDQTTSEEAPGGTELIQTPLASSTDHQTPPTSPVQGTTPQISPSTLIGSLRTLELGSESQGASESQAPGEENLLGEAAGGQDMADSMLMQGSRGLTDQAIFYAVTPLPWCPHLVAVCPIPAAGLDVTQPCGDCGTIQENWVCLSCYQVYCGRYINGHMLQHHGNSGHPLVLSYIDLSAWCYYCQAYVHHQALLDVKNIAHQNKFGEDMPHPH
The assay can be described thus: HDAC6 enzyme activity inhibition (HDAC Fluorimetric Drug Discovery Kit). It counts as biochemical. The note with it: HDAC1 versus HDAC6. As for the experimental part:
as §1, §2

Turning to `CC1CCN(Cc2cc(-c3cn(Cc4ccc(-c5nnc(C(F)F)o5)cn4)nn3)ccc2F)CC1` [Compound 25, 2-(difluoromethyl)-5-(6-((4-(4-fluoro-3-((4-methylpiperidin-1-yl)methyl)phenyl)-1H-1,2,3-triazol-1-yl)methyl)pyridin-3-yl)-1,3,4-oxadiazole], on human recombinant HDAC1, the half-maximal inhibitory concentration (IC50) is > 50 µM. On human recombinant HDAC6, the “HDAC6 selectivity (fold)” value amounted to 2890 fold.
Consider `Fc1c(CN2CCCCC2)cccc1-c1cn(Cc2ccc(-c3nnc(C(F)F)o3)cn2)nn1` [Compound 28, 2-(difluoromethyl)-5-(6-((4-(2-fluoro-3-(piperidin-1-ylmethyl)phenyl)-1H-1,2,3-triazol-1-yl)methyl)pyridin-3-yl)-1,3,4-oxadiazole], for which the IC50 at human recombinant HDAC1 was > 50 µM. On human recombinant HDAC6, the “HDAC6 selectivity (fold)” value was found to be 1440 fold.
In the case of `CN(C)Cc1cc(Cl)cc(-c2cn(Cc3ccc(-c4nnc(C(F)F)o4)cn3)nn2)c1` [Compound 31, 1-(3-chloro-5-(1-((5-(5-(difluoromethyl)-1,3,4-oxadiazol-2-yl)pyridin-2-yl)methyl)-1H-1,2,3-triazol-4-yl)phenyl)-N,N-dimethylmethanamine], the 50% inhibitory concentration (IC50) at human recombinant HDAC1 is > 50 µM. Moreover, the “HDAC6 selectivity (fold)” value on human recombinant HDAC6 was found to be 1424 fold.
Turning to `FC(F)c1nnc(-c2ccc(Cn3cc(-c4cc(Cl)cc(CN5CCCC5)c4)nn3)nc2)o1` [Compound 32, 2-(6-((4-(3-chloro-5-(pyrrolidin-1-ylmethyl)phenyl)-1H-1,2,3-triazol-1-yl)methyl)pyridin-3-yl)-5-(difluoromethyl)-1,3,4-oxadiazole], the IC50 at human recombinant HDAC1 was > 50 µM. The “HDAC6 selectivity (fold)” value at human recombinant HDAC6 came out at 1945 fold.
The corresponding values for `CN(C)Cc1cccc(-c2cn(Cc3ccc(-c4nnc(C(F)F)o4)cn3)nn2)c1Cl` [Compound 34, 1-(2-chloro-3-(1-((5-(5-(difluoromethyl)-1,3,4-oxadiazol-2-yl)pyridin-2-yl)methyl)-1H-1,2,3-triazol-4-yl)phenyl)-N,N-dimethylmethanamine] are > 50 µM and 1633 fold.
As to `FC(F)c1nnc(-c2ccc(Cn3cc(-c4cccc(CN5CCC5)c4Cl)nn3)nc2)o1` [Compound 35, 2-(6-((4-(3-(azetidin-1-ylmethyl)-2-chlorophenyl)-1H-1,2,3-triazol-1-yl)methyl)pyridin-3-yl)-5-(difluoromethyl)-1,3,4-oxadiazole], on human recombinant HDAC1, the 50% inhibitory concentration (IC50) was > 50 µM. The “HDAC6 selectivity (fold)” value on human recombinant HDAC6 came to 1146 fold.
Turning to `FC(F)c1nnc(-c2ccc(Cn3cc(-c4cccc(CN5CCCC5)c4Cl)nn3)nc2)o1` [Compound 36, 2-(6-((4-(2-chloro-3-(pyrrolidin-1-ylmethyl)phenyl)-1H-1,2,3-triazol-1-yl)methyl)pyridin-3-yl)-5-(difluoromethyl)-1,3,4-oxadiazole], the IC50 at human recombinant HDAC1 is > 50 µM. In addition, the “HDAC6 selectivity (fold)” value on human recombinant HDAC6 was found to be 1792 fold.
For the molecule `CC1CCN(Cc2cccc(-c3cn(Cc4ccc(-c5nnc(C(F)F)o5)cn4)nn3)c2Cl)CC1` [Compound 37, 2-(6-((4-(2-chloro-3-((4-methylpiperidin-1-yl)methyl)phenyl)-1H-1,2,3-triazol-1-yl)methyl)pyridin-3-yl)-5-(difluoromethyl)-1,3,4-oxadiazole], on human recombinant HDAC1, the 50% inhibitory concentration (IC50) is > 50 µM. At human recombinant HDAC6, the “HDAC6 selectivity (fold)” value was 1160 fold.
Take `Fc1cc(CN2CCC2)cc(-c2cn(Cc3ccc(-c4nnc(C(F)F)o4)cn3)nn2)c1` [Compound 38, 2-(6-((4-(3-(azetidin-1-ylmethyl)-5-fluorophenyl)-1H-1,2,3-triazol-1-yl)methyl)pyridin-3-yl)-5-(difluoromethyl)-1,3,4-oxadiazole]: the half-maximal inhibitory concentration (IC50) at human recombinant HDAC1 is > 50 µM. For the same molecule, at human recombinant HDAC6, the “HDAC6 selectivity (fold)” value is listed as 2777 fold.
Consider `Fc1cc(CN2CCCC2)cc(-c2cn(Cc3ccc(-c4nnc(C(F)F)o4)cn3)nn2)c1` [Compound 39, 2-(difluoromethyl)-5-(6-((4-(3-fluoro-5-(pyrrolidin-1-ylmethyl)phenyl)-1H-1,2,3-triazol-1-yl)methyl)pyridin-3-yl)-1,3,4-oxadiazole], for which the IC50 at human recombinant HDAC1 was > 50 µM. Further, the “HDAC6 selectivity (fold)” value at human recombinant HDAC6 worked out at 1773 fold.
Turning to `CN(C)Cc1ccc(-c2cn(Cc3ccc(-c4nnc(C(F)F)o4)cn3)nn2)cc1Cl` [Compound 41, 1-(2-chloro-4-(1-((5-(5-(difluoromethyl)-1,3,4-oxadiazol-2-yl)pyridin-2-yl)methyl)-1H-1,2,3-triazol-4-yl)phenyl)-N,N-dimethylmethanamine], on human recombinant HDAC1, the IC50 was > 50 µM. In addition, on human recombinant HDAC6, the “HDAC6 selectivity (fold)” value is recorded as 2083 fold.
Turning to `FC(F)c1nnc(-c2ccc(Cn3cc(-c4ccc(CN5CCC5)c(Cl)c4)nn3)nc2)o1` [Compound 42, 2-(6-((4-(4-(azetidin-1-ylmethyl)-3-chlorophenyl)-1H-1,2,3-triazol-1-yl)methyl)pyridin-3-yl)-5-(difluoromethyl)-1,3,4-oxadiazole], the IC50 on human recombinant HDAC1 was > 50 µM. Also, the “HDAC6 selectivity (fold)” value at human recombinant HDAC6 was found to be 2183 fold.
